Entries after “also recorded” stand apart in the source; their conditions may differ.
Key:
bleeding time = assay: Bleeding time test, forearm puncture with #11 scalpel blade (Experiment 4); format: in vivo, human
From the text: The bleeding time test measures the function of a number of coagulation pathway parameters, including platelet function, extrinsic coagulation pathway and intrinsic coagulation pathway. Here, in order to better understand the various coagulation pathways that might be impacted by gallium nitrate, a bleeding function experiment was done to see if the gallium nitrate effect worked for patients (e.g. Warfarin or Coumadin™ patients) with a suppressed extrinsic coagulation pathway.
In this experiment, a first subject (Subject 1) was treated with Coumadin™ (Warfarin) to achieve a therapeutic dose with an International Normalized Ratio (INR) of 2.5.
Subject 1: To induce bleeding, the first INR 2.5 subject's mid forearm was punctured with a #11 scalpel blade to a depth of 4 mm. This produced prompt flow of blood in the form of a steady slow blood stream down the subject's forearm. This blood flow was gently wiped with gauze every 30 seconds without applying pressure. Under these control (no gallium nitrate) conditions, the bleeding stopped at 122 seconds.
To investigate the effect of gallium nitrate, a second puncture was then made to the arm of the INR 2.5 subject following the same methods as for the first puncture. However in this portion of the experiment, at 5 seconds after puncture, once blood flow had commenced, a gallium nitrate (14%) solution was applied using a soaked cotton-ball. In contrast to the previous no-gallium control, in this gallium nitrate application experiment, blood flow ceased after only 35 seconds. A small pool of blood stayed about incision site. Thus for an INR 2.5 patient, gallium nitrate reduced bleeding time from a control of 122 seconds to a value of only 35 seconds, which is a very substantial decrease.
Subject 2: A mid forearm puncture was made following the same methods as described above. This first puncture was gently wiped with gauze every 30 seconds without applying pressure. In this no gallium nitrate control condition, bleeding stopped at 268 seconds
To investigate the effect of gallium nitrate, a second puncture was then made following the same methods as for the first puncture. At 5 seconds after puncture, once blood flow had commenced, a gallium nitrate (14%) solution was applied using a soaked cotton-ball. By 77 seconds the flow had ceased and a visible clot had started to form.

open wound = assay: Topical application of aqueous gallium nitrate to accidental open bleeding wounds (Experiments 1-3); format: in vivo, human
From the text: Unless otherwise specified, all experiments below used an aqueous solution of unbuffered Ga(NO3)3, dissolved in water in the 5% to 15% weight/volume concentration range, specifically as stated. Note that none of these formulations contained citrate.
A first human subject sustained an accidental 1-inch long gash to the index finger, deep enough to extend below the epidermis, but stopping short of the bone. The wound bled profusely and hurt intensely. Subject immediately inserted the finger into a solution of concentrated (non-medical) 14% aqueous gallium nitrate. […] Subject kept the finger in the 14% aqueous gallium nitrate solution for 10 minutes. […] A regular bandage was then applied. Although a wound of this depth would normally require stitches, by the time further medical treatment was sought, stitches were no longer deemed necessary.
A different (second) human subject sustained an accidental 1-inch wide gash to the chin which again penetrated the epidermis, stopped short of the bone, and which bled very profusely. The wound was treated by liberally applying the same type of 14% gallium nitrate solution used in Experiment 1.
A third human subject sustained an accidental 2-inch wide and quite deep gash (penetrating the epidermis, stopping short of the bone) to the top of the forehead, accompanied by profuse bleeding. A less concentrated (7% aqueous gallium nitrate) topical solution was then applied.

O=[N+]([O-])[O-].O=[N+]([O-])[O-].O=[N+]([O-])[O-].[Ga+3] [gallium nitrate]
visible clot formation (bleeding time; Coumadin treated subject, 14% solution): did not form a visible clot | bleeding time (blood flow ceased) (bleeding time; Subject 1, Coumadin (Warfarin) treated, INR 2.5, 14% solution applied with soaked cotton-ball 5 seconds after puncture): 35 s | bleeding time (flow ceased) (bleeding time; Subject 2, non-Coumadin treated, 14% solution applied with soaked cotton-ball 5 seconds after puncture): 77 s | reduction of bleeding time compared to no-gallium nitrate control (bleeding time; both the Warfarin/Coumadin treated and the non-treated subject, 14% solution): approximately 75% | visible clot formation (bleeding time; non-Coumadin treated subject, 14% solution): formed a very visible brown clot | wound healing (open wound; Experiment 1: 14% aqueous gallium nitrate, finger gash, regular bandage afterwards): healed completely within a matter of days | pain (open wound; Experiment 1: 14% aqueous gallium nitrate, finger kept in solution for 10 minutes): near immediate reduction in pain; also recorded: no pain was felt | bleeding stopped (open wound; Experiment 1: first human subject, 1-inch gash to index finger, finger inserted into 14% aqueous gallium nitrate, no citrate): stopped within a few seconds | resulting clot (open wound; Experiment 2: 14% gallium nitrate solution, chin gash, examined by treating physician shortly thereafter): unusual strength | bleeding stopped (open wound; Experiment 2: second human subject, 1-inch gash to chin, 14% gallium nitrate solution liberally applied): rapidly stopped bleeding | bleeding stopped (open wound; Experiment 3: third human subject, 2-inch deep gash to forehead, 7% aqueous gallium nitrate topical): stopped bleeding unusually quickly | clot formation (open wound; summary of the accidental event: aqueous 14% gallium nitrate on a large open wound immediately after wound formation): unexpectedly rapid clot formation
